Experimental data as given in US7759399B2, “Pharmaceutical compositions” (priority 2002, dated 2010).

Key:
NF-κB = assay: NF-κB-dependent luciferase reporter gene assay, HeLa κB-transformed cells, TPA stimulated; type: cell-based; settings: Homo sapiens, HeLa, 8 h treatment, TPA 25 ng/ml 2 h after exposure, read-out: NF-κB, IC50 (concentration at which the compound halved the NF-κB activity)
Description: (§1) Method: HeLa cell clone 13B, stably transfected with a luciferase reporter plasmid controlled by the human hsp70 promoter, and HeLa κB-transformed cells, stably transfected with a luciferase reporter plasmid controlled by a synthetic NF-κB-STM construct, were maintained in DMEM medium supplemented with 10% FBS, L-glutamine (2 mM) and G418 (250 μg/ml) at 37° C. in a 5% CO2 humidified atmosphere.
(§2) Cells were seeded at a density of 4×10^4 cells/well in 96-well plates. After 18-20 h, the medium was removed and cells were treated for 8 h with the test compounds (100 μl) at the appropriate dilutions in serum-free medium. For the NF-κB-dependent reporter gene assay, cells were stimulated with TPA (25 ng/ml) 2 h after exposure to the compounds.
(§3) After incubation, the medium was removed and cells were lysed in 10 μl of lysis buffer. The luciferase activity was determined by adding 100 μl of substrate and measuring the release of light using a Victor 1420 microplate reader (Wallac, Finland).
The fragment Kpn I-BamH I from the pGL3 basic vector containing the luciferase gene (PROMEGA) was inserted in the pcDNA3 vector (INVITROGEN) digested with Bgl II-KpnI. (This digestion removes the CMV-promoter from pcDNA3.) The resulting new vector was digested with Kpn I-Hind III and a promoter containing a ‘5xNF-κB binding sites—TATA box’ sequence was inserted upstream of the luciferase gene. This vector has been named STM.
To obtain stable HeLa cell lines expressing the luciferase gene under the control of NF-κB, HeLa cells were transfected (using lipofectamine plus GIBCO) with the STM-Pvu I linearized vector, and selected for 20 days with G418 (800 μg/ml). After selection, the resistant HeLa cell pool was controlled (in quadruplicate samples) for luciferase activity after stimulation with TNFα, IL-1 and TPA.
(§4) The AC200/μM for HSF is the concentration at which the tested compound doubled the HSF activity in this assay. The IC50/μM for NF-κB is the concentration at which the tested compound halved the NF-κB activity in this assay.

HSF = HSF luciferase reporter assay, HeLa cell clone 13B (human hsp70 promoter); type: cell-based; settings: 8 h, HeLa clone 13B, 8 h treatment, serum-free medium, read-out: HSF, AC200 (concentration at which the compound doubled the HSF activity)
Description: as §1, §2, §3, §4

Sendai virus = Sendai virus replication in 37RC cells (virus yield by HAU titration); type: cell-based; settings: Respirovirus muris, 5 HAU/10^5 cells, virus yield at 24 hours after infection, read-out: ID50 (50% inhibitory dose/concentration), Sendai virus yield
uninfected 37RC cells = assay: Toxicity to uninfected cells, determined visually by microscopy (TD100)
in vitro = type: cell-based; settings: 37RC cells, 24 h treatment; read-out: LC50 (50% lethal dose/concentration), Neutral Red
Description: Cell viability was determined using the Neutral Red assay. 37RC cells were seeded at density of 6×10^4 cells/well in 24-well plates and incubated for 24 h. Confluent 37RC monolayers were treated with the test compounds at different dilutions for 24 h at 37° C. After incubation, the medium was removed and the cells were incubated with RPMI medium containing 40 μg/ml Neutral Red dye (500 μl/well). After 2 h at 37° C., the monolayers were washed with phosphate-buffered saline (PBS) and then with a solution containing 1% CaCl2 and 0.5% formaldehyde. After washing, a solution containing 1% acetic acid/50% ethanol was added to the monolayers (250 μl/well). After 10 min at room temperature, the absorbance was determined with a microplate reader (Victor 1420, Wallac) at 540 nm.

[1] = Alamar Blue cytotoxicity assay; type: cell-based; settings: human
Description: HeLa cells were plated in 96-well microtiter plates in 100 μl culture medium (4×10^4/well). After 20 hours, the cells were exposed to the test compounds at different dilutions and incubated for the next 8 h at 37° C. in a 5% CO2 humidified atmosphere. After 6 h incubation, the Alamar Blue was added in an amount equal to 10% of the culture volume (10 μl). Two hours after the addition of the Alamar Blue, the fluorescence was measured using a Victor 1420 microplate reader.
The LC50/μM is the concentration at which the tested compound killed half the cells in this assay.

| SMILES | IC50 (NF-κB) [µM] | EC (2-fold) (HSF) [µM] | IC50 (Sendai virus) [nM] | TD100 (dose or concentration at which the compound was 100% toxic to uninfected cells) (uninfected 37RC cells) [µM] | CC50 at 24 h (in vitro) [µM] | CC50 at 8 h [1] [µM] |
| --- | --- | --- | --- | --- | --- | --- |
| CC(C)(C)OC(=O)N[C@@H](CS[C@@H]1CC(=O)C(C)(C)C1OC(=O)C(C)(C)C)C(=O)O (stereo in doubt) [CTM-217, (2R)-2-tert-butoxycarbonylamino-3-[(1R,2S)-2-(2,2-dimethylpropionyloxy)-3,3-dimethyl-4-oxocyclopentylsulfanyl]-propionic acid] | 14 | 10 |  |  |  |  |
| CC(C)(C)OC(=O)N[C@@H](CS[C@H]1CC(=O)C(C)(C)C1OC(=O)C(C)(C)C)C(=O)O (stereo in doubt) [CTM-218, (2R)-2-tert-butoxycarbonylamino-3-[(1S,2R)-2-(2,2-dimethylpropionyloxy)-3,3-dimethyl-4-oxocyclopentylsulfanyl]-propionic acid] | 22 | 15 |  |  |  |  |
| CC(C)(C)[Si](C)(C)OC1C=CC(=O)C1 (centres unmarked) [CTC-8, 4-tert-butyldimethylsilyloxy-cyclopent-2-en-1-one, reference compound] |  |  | 500 | 100 |  |  |
| COC(=O)[C@H](CS[C@H]1CC(=O)CC[C@@H]1O[Si](C)(C)C(C)(C)C)NC(=O)OC(C)(C)C [CTM-68, (R)-2-tert-Butoxycarbonylamino-3-[(1S,2S)-2-(tert-butyl-dimethyl-silanyloxy)-5-oxo-cyclohexylsulfanyl]-propionic acid methyl ester] |  | 98 |  | 9.8 | 9.8 |  |
| COC(=O)C(CSC1CC(=O)CC(O[Si](C)(C)C(C)(C)C)C1)NC(=O)OC(C)(C)C (centres unmarked) [CTM-78, 2-tert-Butoxycarbonylamino-3-[3-(tert-butyl-dimethyl-silanyloxy)-5-oxo-cyclohexylsulfanyl]-propionic acid methyl ester] |  | 45 |  | 18.6 | 18.6 |  |
| Cc1ccc(S[C@H]2CC(=O)C[C@@H]2O[Si](C)(C)C(C)(C)C)cc1 [CTM-80] | > 100 | 60 | 1000 | 50 | 16 | > 800 |
| CC(=O)Nc1ccc(S[C@H]2CC(=O)C[C@@H]2O[Si](C)(C)C(C)(C)C)cc1 [CTM-81] | 31 | 28 | 1000 | 50 | 17 | 181 |
| COC(=O)c1ccccc1S[C@H]1CC(=O)C[C@@H]1O[Si](C)(C)C(C)(C)C [CTM-82] | 54 | 35 | 1000 | 50 | 16 | > 800 |
| CC(=O)NCCS[C@H]1CC(=O)C[C@@H]1O[Si](C)(C)C(C)(C)C [CTM-83] | 47 | 27 | 3000 | 50 | 27 | > 800 |
| CC(C)(C)[Si](C)(C)O[C@H]1CC(=O)C[C@@H]1Sc1ncccn1 [CTM-84] | 28 | 28 | 1000 | 10 | 6.3 | 556 |
| CC(C)(C)[Si](C)(C)O[C@H]1CC(=O)C[C@@H]1Sc1ccccn1 [CTM-86] | 36 | 20 | 2000 | 10 | 7 | 96 |
| COC(=O)CS[C@H]1CC(=O)C[C@@H]1O[Si](C)(C)C(C)(C)C [CTM-87] | 52 | 48 | 4000 | 50 | 38 | 260 |
| COC(=O)CCS[C@H]1CC(=O)C[C@@H]1O[Si](C)(C)C(C)(C)C [CTM-88] | 65 | 60 | 10000 | 50 | 45 | 477 |
| CC(=O)N[C@@H](CS[C@H]1CC(=O)C[C@@H]1O[Si](C)(C)C(C)(C)C)C(=O)OC(C)(C)C [CTM-106] | > 100 | 26 | 4000 | 50 | 28 | 536 |
| CC(C)(C)[Si](C)(C)O[C@H]1CC(=O)C[C@@H]1Sc1ccc([N+](=O)[O-])cc1 [CTM-107] | 47 | 21 | 300 | 10 |  | 169 |
| CC(=O)N[C@@H](CS[C@H]1CC(=O)C[C@@H]1O[Si](C)(C)C(C)(C)C)C(=O)O [CTM-115] |  |  | 50000 | >500 | 228 | > 800 |
| CC(C)(C)OC(=O)N[C@@H](CS[C@H]1CC(=O)C[C@@H]1O[Si](C)(C)C(C)(C)C)C(=O)O [CTM-145] |  |  | 800 | 50 | 14 | > 800 |
| C[C@@H](CS[C@H]1CC(=O)C[C@@H]1O[Si](C)(C)C(C)(C)C)C(=O)N1CCCC1C(=O)O (some centres unmarked) [CTM-182] | > 100 | 60 | 5000 | 100 | 54 |  |
| CC(C)(C)OC(=O)N[C@@H](CS[C@H]1CC(=O)C[C@@H]1O[Si](C)(C)C(C)(C)C)C(=O)OC(C)(C)C [CTM-183] |  |  | 1600 | 50 | 28 |  |
| CCOC(=O)[C@H](CS[C@H]1CC(=O)C[C@@H]1O[Si](C)(C)C(C)(C)C)NC(=O)OC(C)(C)C [CTM-184] | 61 | 24 | 1000 | 50 | 25 |  |
